In patent US9963462B2 (priority 2015, dated 2018):

Legend:
[1] = target: SNAP-hSPR (sepiapterin reductase, SPR) (Homo sapiens, UniProt P35270); assay: biochemical; assay type: binding; conditions: terbium labelled SNAP-hSPR / SSZ labelled SNAP-EGFP; read-out: hTR-FRET IC50
[2] = test system: BH4 levels in SK-N-BE (2) cells; assay: SKN-N-BE (2) cellular assay, BH4 levels by LC-MS; assay type: cell-based; conditions: Homo sapiens, SKNBE2, read-out: SK-N-BE(2) IC50, SK-N-BE (2) cells, BH4 levels by LC-MS
Method: SKN-N-BE(2) Cellular Assay: SK-N-BE (2) cells were seeded in sterile, 96-well plates and incubated for 12-24 hours at 37° C. with 5% CO2 supply. Media was removed and fresh DMEM/F-12 media (containing Glutamine & Pen/Strep but no FBS) was added. Compounds (at different concentrations) were added to different wells. The plates were then incubated for 6-48 hours at 37° C. with 5% CO2 supply. Plates were then centrifuged and the supernatant was removed. The plates were then optionally washed once with PBS. They were then sealed and stored at −80° C. or immediately used. The cells were lysed and the level of BH4 was assessed by LC-MS.
Compounds were assayed for SPR inhibitory activity using a SKN-N-BE (2) cellular assay according to the following procedure. SK-N-BE (2) cells were seeded in sterile, 96-well plates and incubated for 12-24 hours at 37° C. with 5% CO2 supply. Media was removed and fresh DMEM/F-12 media (containing Glutamine & Pen/Strep but no FBS) was added. Compounds (at different concentrations) were added to different wells. The plates were then incubated for 6-48 hours at 37° C. with 5% CO2 supply. Plates were then centrifuged and the supernatant was removed. The plates were then optionally washed once with PBS. They were then sealed and stored at −80° C. or immediately used in the next step. The cells were lysed and the levels of BH4 were assessed by LC-MS.

Chain of SNAP-hSPR (sepiapterin reductase, SPR) (P35270 whole entry): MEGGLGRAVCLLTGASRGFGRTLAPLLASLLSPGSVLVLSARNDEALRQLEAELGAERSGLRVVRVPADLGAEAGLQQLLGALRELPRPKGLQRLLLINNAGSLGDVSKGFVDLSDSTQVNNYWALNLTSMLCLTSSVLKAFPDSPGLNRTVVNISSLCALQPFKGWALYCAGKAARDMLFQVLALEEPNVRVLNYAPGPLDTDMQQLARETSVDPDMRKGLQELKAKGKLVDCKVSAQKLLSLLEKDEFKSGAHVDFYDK

Row | Structure (SMILES) | IC50 [1] [nM] | IC50 [2] [nM]
1 | Cc1c(C(=O)N2[C@H](C)CCC[C@@H]2C)cnn1-c1nc2ccsc2c(=O)[nH]1 [Q-0417] | 4 | 900
2 | Cc1nn(-c2nc3ccsc3c(=O)[nH]2)c(C)c1C(=O)N1CCC(C(F)(F)F)CC1 [Q-0419] | 5 | 700
3 | Cc1nc(-n2ncc(C(=O)N3CCC(C(F)(F)F)CC3)c2C)[nH]c(=O)c1Cl [Q-0421] | 3 | 700
4 | Cc1c(C(=O)N2CCC(C(F)(F)F)CC2C)cnn1-c1nc2ccsc2c(=O)[nH]1 (stereo not shown) [Q-0422] | 3 | 200
5 | Cc1c(C(=O)N2CCC(F)(F)CC2)cnn1-c1nc2c(c(=O)[nH]1)CCC2 [Q-0424] | 4 | 1100
6 | Cc1c(C(=O)N2CCC(C(F)(F)F)CC2)cnn1-c1nc2c(c(=O)[nH]1)CCCC2 [Q-0425] | 30 | 2100
7 | Cc1c(C(=O)N2CCC(C(F)(F)F)CC2)cnn1-c1nc2c(ccn2C)c(=O)[nH]1 [Q-0426] | 100 | 16000
8 | Cc1c(C(=O)N2CCC(c3ccccc3)CC2)cnn1-c1nc2c(c(=O)[nH]1)CCC2 [Q-0428] | 3 | 19
9 | Cc1c(C(=O)N2CCC(C(F)(F)F)CC2)cnn1-c1nc2ccccc2c(=O)[nH]1 [Q-0429] | 100 | 49000
10 | Cc1c(C(=O)N2CCC(C(F)(F)F)C2)cnn1-c1nc2c(c(=O)[nH]1)CCC2 (stereo not shown) [Q-0431] | 3 | 500
11 | Cc1cc(=O)[nH]c(-n2cc(C(=O)N3CCC(C(F)(F)F)CC3)c(C)n2)n1 [Q-0432, 6-methyl-2-{3-methyl-4-[4-(trifluoromethyl)piperidine-1-carbonyl]-1H-pyrazol-1-yl}-3,4-dihydropyrimidin-4-one] | 40 | 6500
12 | Cc1c(C(=O)N(CCC(F)(F)F)CC(F)(F)F)cnn1-c1nc2c(c(=O)[nH]1)CCC2 [Q-0435] | 20 | 1200
13 | Cc1c(C(=O)N2CCC(C(F)(F)F)CC2)cnn1-c1nc2[nH]ncc2c(=O)[nH]1 [Q-0438] | 100 | 35000
14 | Cc1cc(-n2ncc(C(=O)N3CCC(C(F)(F)F)CC3)c2C)[nH]c(=O)c1 [Q-0439, 4-methyl-6-{5-methyl-4-[4-(trifluoromethyl)piperidine-1-carbonyl]-1H-pyrazol-1-yl}-1,2-dihydropyridin-2-one] | 1 | 96
15 | Cc1cc(-n2cc(C(=O)N3CCC(C(F)(F)F)CC3)c(C)n2)[nH]c(=O)c1 [Q-0440, 4-methyl-6-{3-methyl-4-[4-(trifluoromethyL)piperidine-1-carbonyl]-1H-pyrazol-1-yl}-1,2-dihydropyridin-2-one] | 9 | 1400
16 | Cc1c(C(=O)N2CCC(C(F)(F)F)CC2)cnn1-c1nc2scnc2c(=O)[nH]1 [Q-0441] | 100 | 31000

Row | Structure (SMILES) | IC50 [1] [nM] | IC50 [2] [nM]
17 | Cc1cc(=O)[nH]c(-n2cc(C(=O)N3CCC(C(F)(F)F)CC3)cn2)n1 [Q-0443] | 9 | 3900
18 | Cc1cc(=O)[nH]c(-n2ncc(C(=O)N3CCC(C(F)(F)F)CC3)c2C(C)C)n1 [Q-0444] | 10 | 2700
19 | CC(C)c1c(C(=O)N2CCC(C(F)(F)F)CC2)cnn1-c1nc2c(c(=O)[nH]1)CCC2 [Q-0445] | 10 | 900
20 | Cc1c(C(=O)N2CCC(O)(c3ccccc3)CC2)cnn1-c1nc2c(c(=O)[nH]1)CCC2 [Q-0446] | 7 | 96
21 | Cc1c(C(=O)N2CCC(C(C)(O)C(F)(F)F)CC2)cnn1-c1nc2c(c(=O)[nH]1)CCC2 (stereo not shown) [Q-0449] | 3 | 78
22 | Cc1c(C(=O)N2CCCC(C(F)(F)F)C2)cnn1-c1nc2c(c(=O)[nH]1)CCC2 (stereo not shown) [Q-0450] | 5 | 300
23 | Cc1nc(-n2ncc(C(=O)N3CCc4ccccc4C3)c2C)[nH]c(=O)c1Cl [Q-0456] | 8 | 500
24 | Cc1nn(-c2nc3ccsc3c(=O)[nH]2)c(C)c1C(=O)N1CCc2ccccc2C1 [Q-0458] | 6 | 400
25 | Cc1cc(-n2cc(C(=O)N3CCC(C(F)(F)F)CC3)cn2)[nH]c(=O)c1 [Q-0460, 4-methyl-6-{4-[4-(trifluoromethyl)piperidine-1-carbonyl]-1H-pyrazol-1-yl}-1,2-dihydropyridin-2-one] | 3 | 600
26 | COC1CCN(C(=O)c2cnn(-c3nc4c(c(=O)[nH]3)CCC4)c2C)CC1 [Q-0461] | 3 | 400
27 | Cc1c(C(=O)N2CCC(Oc3ccccc3)CC2)cnn1-c1nc2c(c(=O)[nH]1)CCC2 [Q-0462] | 5 | 94
28 | O=C(c1cnn(-c2nc3c(c(=O)[nH]2)CCC3)c1C1CC1)N1CCC(C(F)(F)F)CC1 [Q-0463] | 4 | 300
29 | Cc1c(C(=O)N2CCC(C#N)CC2)cnn1-c1nc2c(c(=O)[nH]1)CCC2 [Q-0464] | 3 | 300
30 | O=c1[nH]c(-c2ccc(Br)cn2)nc2c1CCC2 [Q-0465] | 300 | 150000
31 | Cc1c(C(=O)N2CCC(C(F)(F)F)CC2)cnn1-c1cc(C(F)(F)F)cc(=O)[nH]1 [Q-0466, 6-{5-methyl-4-[4-(trifluoromethyl)piperidine-1-carbonyl]-1H-pyrazol-1-yl}-4-(trifluoromethyl)-1,2-dihydropyridin-2-one] | 1 | 59
32 | Cc1c(C(=O)N2CCCC(Oc3ccccc3)C2)cnn1-c1nc2c(c(=O)[nH]1)CCC2 (stereo not shown) [Q-0468] | 7 | 200
